The results in this text go back to PMC10891904 (Pharmaceuticals, 2024).

One experiment deals with T1, rabbit 5-LOX (Oryctolagus cuniculus, UniProt G1SNX0).
T1 construct: purchased Cayman Chemical 560131
T1 sequence (G1SNX0 1-674): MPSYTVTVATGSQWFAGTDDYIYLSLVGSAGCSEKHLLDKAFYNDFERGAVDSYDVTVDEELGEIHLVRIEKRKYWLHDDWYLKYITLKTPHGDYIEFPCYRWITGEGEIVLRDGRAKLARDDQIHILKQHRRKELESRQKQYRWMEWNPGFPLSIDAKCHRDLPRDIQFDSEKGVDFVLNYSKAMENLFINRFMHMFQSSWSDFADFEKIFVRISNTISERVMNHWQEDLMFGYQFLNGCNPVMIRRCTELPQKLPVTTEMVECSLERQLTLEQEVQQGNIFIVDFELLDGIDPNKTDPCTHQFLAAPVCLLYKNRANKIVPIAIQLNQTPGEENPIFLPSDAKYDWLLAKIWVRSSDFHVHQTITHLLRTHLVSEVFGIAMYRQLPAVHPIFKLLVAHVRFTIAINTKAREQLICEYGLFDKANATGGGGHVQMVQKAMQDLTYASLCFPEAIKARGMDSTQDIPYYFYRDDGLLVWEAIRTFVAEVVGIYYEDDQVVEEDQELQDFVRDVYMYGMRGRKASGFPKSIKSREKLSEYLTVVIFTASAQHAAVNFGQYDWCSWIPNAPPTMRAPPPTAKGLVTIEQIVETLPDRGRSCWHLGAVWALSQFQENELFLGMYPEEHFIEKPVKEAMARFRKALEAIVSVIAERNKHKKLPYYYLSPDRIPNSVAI
Kind of experiment: In vitro 5-LOX inhibition assay (enzyme kit). The class given is biochemical. To be noted: mean of three values.

The test system of experiment [1] is HepG2 (human liver cancer) cells. Kind of experiment: Cell viability, MTT assay, HepG2. The format is cell-based. The protocol:
(§1) HepG2, MCF7, and THLE2 cells were initially seeded at a density of 1 × 10^4 cells per well (100 μL per well) in DMEM medium. These cultures were then incubated at 37 °C in a 5% CO2 environment for 24 h to attain confluency levels ranging from 70% to 80%. […] The cells were allowed to culture for an additional 24 h.
(§2) After the incubation period, 10 μL of a 12 mM MTT stock solution (5 mg/mL MTT in sterile PBS) was introduced into each well. The plate was incubated for 4 h at 37 °C. Following this, the MTT solution was removed, and the purple formazan crystals that had developed at the well bottoms were dissolved by adding 100 μL of DMSO, allowing for a 20 min incubation. A negative control was included, which involved adding 10 μL of the MTT stock solution to 100 μL of medium alone.
(§3) The absorbance at 570 nm was subsequently measured using an ELISA reader (StatFax-2100, Awareness Technology, Inc., Palm City, FL, USA). […] Sigmoidal and dose-dependent curves were created to visualize the experimental results. These assays were conducted in triplicate and were repeated in three independent experiments.

For experiment [2], the system named is THLE2 (healthy human liver) cells. Kind of experiment: Cell viability, MTT assay, THLE2. The format is cell-based. The protocol:
as §1, §2, §3

The subject of a further experiment is COX-1/COX-2/5-LOX. The following applies: from experimental IC50.
Experiment [3] has as its system LPS-inflamed THLE2 cells. The following applies: 1/10 of LC50, LPS 1 µg/mL, 24 h, G3 compared to G2. The protocol:
(§4) The levels of malondialdehyde (MDA), superoxide dismutase (SOD), catalase (CAT), and glutathione peroxidase (GPX) were quantified using commercial kits, following established protocols. […] Subsequently, the cells were exposed to 1 µg/mL of LPS for 24 h.
(§5) After this incubation period, the cells were rinsed with PBS, harvested from the plates, and suspended in 1 mL of ice-cold PBS (0.1 M, containing 0.05 mM EDTA). The cell suspension was homogenized, and the resulting homogenate was then subjected to centrifugation at 4000× g for 10 min at 4 °C. The obtained supernatants were preserved at −80 °C until they were ready for analysis. The protein concentration in each of the supernatant samples was determined using the Bradford assay.

The subject of experiment [4] is LPS-inflamed MCF7 cells. To be noted: 1/10 of LC50, LPS 1 µg/mL, 24 h, G3 relative to G2. Here is the method: as §4, §5
Experiment [5] deals with LPS-inflamed HepG2 cells. The following applies: 1/10 of LC50, LPS 1 µg/mL, 24 h, G3 relative to G2. The protocol:
as §4, §5

The test system of experiment [6] is LPS-inflamed THLE2 cells. To be noted: qPCR, β-actin reference, G3 vs G2. The protocol:
(§6) HepG2, MCF7, and THLE2 cells were initially seeded in a culture medium comprising DMEM supplemented with 10% FCS and 1% penicillin/streptomycin solution. These cultures were maintained at 37 °C in a 5% CO2 environment. The culture medium was refreshed twice a week, and when the cell cultures reached approximately 80% confluence, they were subcultured after trypsinization (0.05%, w/v). To mitigate mitogenic effects, the cells were pre-cultured in serum-free DMEM for a minimum of 4 h.
(§7) To induce inflammation, 1 μg/mL of LPS was added to the cultures, as previously described. Subsequently, the cells were allowed to incubate for a duration of 24 h.
(§8) To isolate total RNA from HepG2, MCF7, and THLE2 cells, the RNeasy Mini kit was employed in accordance with the manufacturer’s instructions and established methods. Subsequently, cDNA was synthesized from […] of the total RNA using Quantiscript reverse transcriptase. The resulting cDNA served as a template for evaluating the relative expression of target gene mRNAs, with β-actin serving as an internal reference. To amplify the isolated cDNA, 2X Maxima SYBR Green/ROX qPCR Master Mix was used, following the manufacturer’s protocol, and specific gene primers designed for the purpose.
(§9) The reaction volume and qPCR thermal conditions were consistent with those previously described. Upon completion of the final cycle, the temperature was increased from 60 to 95 °C to generate a melt curve. The relative change in gene expression was presented as a fold change, determined using quantities at the critical threshold (Ct) and the 2^−∆∆Ct method (Table 5).

Experiment [7] has as its system LPS-inflamed MCF7 cells. The following applies: qPCR, β-actin reference, G3 vs G2. The protocol: as §6, §7, §8, §9
Experiment [8] deals with LPS-inflamed HepG2 cells. The following applies: qPCR, β-actin reference, G3 vs G2. The protocol: as §6, §7, §8, §9
Experiment [9] relates to MCF7 (human breast cancer) cells. Nature of the experiment: Cell viability, MTT assay, MCF7. To be noted: 24 h. The format is cell-based. Here is the method: as §1, §2, §3
The target in another experiment is human recombinant COX-2 (Homo sapiens, UniProt P35354). Nature of the experiment: biochemical.
Sequence of human recombinant COX-2 (P35354 18-604): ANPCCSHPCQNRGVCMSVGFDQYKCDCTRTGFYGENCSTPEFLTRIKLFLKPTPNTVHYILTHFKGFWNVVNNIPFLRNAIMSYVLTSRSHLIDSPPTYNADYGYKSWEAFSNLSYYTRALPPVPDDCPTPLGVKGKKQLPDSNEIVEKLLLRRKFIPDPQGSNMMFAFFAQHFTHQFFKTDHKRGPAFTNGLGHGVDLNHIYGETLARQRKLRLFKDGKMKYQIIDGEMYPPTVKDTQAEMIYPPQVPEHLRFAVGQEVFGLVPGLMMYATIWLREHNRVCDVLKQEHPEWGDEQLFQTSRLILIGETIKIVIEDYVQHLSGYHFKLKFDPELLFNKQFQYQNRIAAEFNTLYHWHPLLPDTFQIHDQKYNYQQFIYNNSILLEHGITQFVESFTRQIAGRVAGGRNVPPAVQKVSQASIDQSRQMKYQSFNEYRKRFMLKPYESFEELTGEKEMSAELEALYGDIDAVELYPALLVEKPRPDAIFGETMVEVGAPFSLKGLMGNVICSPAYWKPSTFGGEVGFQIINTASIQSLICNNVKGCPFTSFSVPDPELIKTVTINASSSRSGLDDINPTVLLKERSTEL
The target in the next experiment is ovine COX-1 (Ovis aries, UniProt P05979). Nature of the experiment: biochemical.
Sequence of ovine COX-1 (P05979 25-600): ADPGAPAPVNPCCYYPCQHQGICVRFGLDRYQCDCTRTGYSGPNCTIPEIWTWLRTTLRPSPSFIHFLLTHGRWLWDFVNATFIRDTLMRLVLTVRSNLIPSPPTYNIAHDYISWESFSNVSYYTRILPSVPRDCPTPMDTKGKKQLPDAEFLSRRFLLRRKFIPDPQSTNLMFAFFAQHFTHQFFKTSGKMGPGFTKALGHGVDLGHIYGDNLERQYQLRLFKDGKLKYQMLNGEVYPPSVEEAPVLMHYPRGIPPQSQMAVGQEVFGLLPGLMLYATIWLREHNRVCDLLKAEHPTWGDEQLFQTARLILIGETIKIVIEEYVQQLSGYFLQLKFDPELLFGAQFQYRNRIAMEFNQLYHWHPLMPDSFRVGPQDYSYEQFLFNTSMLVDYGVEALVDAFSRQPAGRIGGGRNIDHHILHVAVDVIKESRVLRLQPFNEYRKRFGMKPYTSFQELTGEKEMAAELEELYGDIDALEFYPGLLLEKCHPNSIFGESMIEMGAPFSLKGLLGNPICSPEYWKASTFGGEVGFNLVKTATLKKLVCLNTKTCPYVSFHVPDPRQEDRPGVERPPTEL
In experiment [10] the test system is LPS-inflamed THLE2 cells. The following applies: 1/10 of IC50, LPS 1 μg/mL, 24 h, G3 vs G2. The protocol:
as §6, §7
(§10) Inflammatory marker levels, including TNFα, IL1b, COX-1, COX-2, and 5-LOX, were quantified following established procedures. In short, the cells were seeded at a density of 5 × 10^4 cells per well in flat-bottomed 96-well plates. […] The cells were then incubated at 37 °C for a period of 24 h.
(§11) After incubation, the culture medium was carefully collected into micro-centrifuge tubes and subjected to centrifugation at 1500 rpm for 10 min. The resulting supernatant was transferred to new micro-centrifuge tubes, and the levels of TNFα, IL1b, COX-1, COX-2, and 5-LOX were determined using an ELISA kit (TNFα, IL1b, COX-1, COX-2, and 5-LOX were determined using enzyme-linked immunoassay (ELISA) kits from Sigma Aldrich (Saint Louis, MO, USA), Abcam (Cambridge, UK), and Aviva Systems Biology (San Diego, CA, USA).

Experiment [11] relates to LPS-inflamed MCF7 cells. To be noted: 1/10 of IC50, LPS 1 μg/mL, 24 h, G3 vs G2. Here is the method: as §6, §7, §10, §11
The subject of experiment [12] is LPS-inflamed HepG2 cells. To be noted: 1/10 of IC50, LPS 1 μg/mL, 24 h. The protocol: as §6, §7, §10, §11

Structures are written as SMILES.

At rabbit 5-LOX, `Cc1ccc(-c2cc(C(F)(F)F)nn2-c2ccc(S(N)(=O)=O)cc2)cc1` [Celecoxib] showed an IC50 of 16.7 µM.

Consider `N.N.[Cl][Pt][Cl]` [Cisplatin], for which the IC50 in experiment [1] (24 h) was determined as 66.9 ± 1.8 µM; in experiment [2] (24 h), 2140 ± 95.3 µM.

As for `Nc1ccc(S(=O)(=O)Nc2ncccn2)cc1` [Sulfadiazine], the “experimental 5-LOX/COX-1 selectivity” value in the experiment with COX-1/COX-2/5-LOX is 1. Besides, the “experimental COX-2/COX-1 selectivity” value in the experiment on COX-1/COX-2/5-LOX was 3.6. Further, the CAT levels result in the experiment with LPS-inflamed THLE2 cells [3] is on record as “significant elevation”; in the experiment with LPS-inflamed MCF7 cells [4], “increased levels”; in the experiment on LPS-inflamed HepG2 cells [5] it was “increased levels”. Moreover, the GPX levels result in the experiment with LPS-inflamed THLE2 cells [3] is given as “significant elevation”; in the experiment on LPS-inflamed HepG2 cells [5], “increased levels”. Further, the MDA levels result with LPS-inflamed THLE2 cells [3] is listed as “substantial reduction”; in the experiment with LPS-inflamed MCF7 cells [4], “significant augmentation”; in the experiment with LPS-inflamed HepG2 cells [5], “significant augmentation”. Moreover, the SOD levels result in the experiment on LPS-inflamed THLE2 cells [3] is “significant elevation”. In addition, the 5-LOX gene expression entry with LPS-inflamed THLE2 cells [6], in the experiment with LPS-inflamed MCF7 cells [7] and with LPS-inflamed HepG2 cells [8] was “significantly blunted” throughout. Further, the figures for the COX-1 gene expression entry in the experiment with LPS-inflamed THLE2 cells [6], with LPS-inflamed MCF7 cells [7] and with LPS-inflamed HepG2 cells [8] were “not significant”, “significantly blunted” and “significantly blunted”, respectively. Besides, the COX-2 gene expression result in the experiment with LPS-inflamed THLE2 cells [6], in the experiment on LPS-inflamed MCF7 cells [7] and with LPS-inflamed HepG2 cells [8] was “significantly blunted” throughout. The IL1b gene expression result in the experiment with LPS-inflamed THLE2 cells [6], with LPS-inflamed MCF7 cells [7] and in the experiment on LPS-inflamed HepG2 cells [8] was “significantly blunted” in each case. Moreover, the TNFα gene expression result in the experiment on LPS-inflamed THLE2 cells [6], in the experiment on LPS-inflamed MCF7 cells [7] and in the experiment on LPS-inflamed HepG2 cells [8] was “significantly blunted” each time. The IC50 worked out at 216 ± 3.8 µM in experiment [9]; 5.27 µM at human recombinant COX-2; 19.1 µM against rabbit 5-LOX; 18.4 µM on ovine COX-1; 246 ± 4.1 µM in experiment [1] (Homo sapiens, HepG2, 24 h); 4160 ± 90.5 µM in experiment [2] (Homo sapiens, THLE-2, 24 h). Also, in the experiment with LPS-inflamed THLE2 cells [10], the 5-LOX level entry is recorded as “significantly reduced”. Also, the COX-2 level entry with LPS-inflamed THLE2 cells [10], in the experiment with LPS-inflamed MCF7 cells [11] and in the experiment on LPS-inflamed HepG2 cells [12] (G3 vs G2) was “significantly reduced” throughout. Besides, the IL1b level result in the experiment with LPS-inflamed THLE2 cells [10], in the experiment on LPS-inflamed MCF7 cells [11] and in the experiment with LPS-inflamed HepG2 cells [12] (G3 vs G2) was “significantly reduced” each time. In addition, the TNFα level result with LPS-inflamed THLE2 cells [10], in the experiment with LPS-inflamed MCF7 cells [11] and in the experiment with LPS-inflamed HepG2 cells [12] (G3 vs untreated LPS-inflamed cells (G2)) was “significantly reduced” each time.
